Reference: patent US20230265151A1, “GIP/GLP1 CO-AGONIST COMPOUNDS” (priority 2020, published 2023)
Like-named read-outs stand apart in the source and are kept apart here.

Columns and labels:
Format in all cases: cell-based
hGIPR = biological target: T1, hGIPR (Homo sapiens, UniProt P48546); assay: Functional cAMP formation (HTRF) in HEK-293 clonal cells expressing hGIPR, 0.1% bovine casein, without or with 1.0% human serum albumin; settings: for EC50: geometric mean
T1 construct: expressed in transfected cells
T1 sequence (P48546 22-466): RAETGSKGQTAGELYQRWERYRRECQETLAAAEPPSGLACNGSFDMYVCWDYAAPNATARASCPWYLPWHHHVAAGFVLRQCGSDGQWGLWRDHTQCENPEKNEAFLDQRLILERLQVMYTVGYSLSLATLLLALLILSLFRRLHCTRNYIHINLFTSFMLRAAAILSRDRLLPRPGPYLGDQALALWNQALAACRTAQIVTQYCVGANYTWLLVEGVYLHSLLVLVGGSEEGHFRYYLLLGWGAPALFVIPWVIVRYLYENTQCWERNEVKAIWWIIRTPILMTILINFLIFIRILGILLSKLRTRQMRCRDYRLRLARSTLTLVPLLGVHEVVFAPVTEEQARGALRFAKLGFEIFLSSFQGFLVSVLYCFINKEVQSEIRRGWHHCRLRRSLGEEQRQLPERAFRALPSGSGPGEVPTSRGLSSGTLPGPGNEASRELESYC
Procedure, shortened: (§1)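 Cells were stimulated with peptide for 30 min at 37° C, then intracellular cAMP was measured by competitive HTRF (665/620 nm ratio) and converted to nM using a cAMP standard curve. Relative EC50 and Emax came from four-parameter logistic fits of percent maximal response against peptide concentration.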

hGLP-1R = hGLP-1R (Homo sapiens, UniProt P43220); assay: Functional cAMP formation (HTRF) in HEK-293 clonal cells expressing hGLP-1R, 0.1% bovine casein, without or with 1.0% human serum albumin; set-up: expressed in transfected cells; settings: for EC50: cAMP, 0.1% bovine casein (no human serum albumin), geometric mean, read-out: hGLP-1R EC50, nM (SEM, n)
Sequence of hGLP-1R (P43220 24-463): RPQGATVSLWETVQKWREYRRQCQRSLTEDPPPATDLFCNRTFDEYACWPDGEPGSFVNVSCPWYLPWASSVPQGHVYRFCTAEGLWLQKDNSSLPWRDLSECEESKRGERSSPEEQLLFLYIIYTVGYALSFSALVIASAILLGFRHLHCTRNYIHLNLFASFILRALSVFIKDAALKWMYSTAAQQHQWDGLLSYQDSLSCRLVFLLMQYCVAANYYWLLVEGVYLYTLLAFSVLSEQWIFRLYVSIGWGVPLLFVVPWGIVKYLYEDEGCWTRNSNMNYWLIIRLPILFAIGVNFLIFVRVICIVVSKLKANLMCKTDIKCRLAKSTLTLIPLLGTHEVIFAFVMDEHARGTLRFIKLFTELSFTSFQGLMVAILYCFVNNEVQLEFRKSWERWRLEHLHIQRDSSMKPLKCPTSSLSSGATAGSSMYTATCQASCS
Procedure, shortened: as §1

hGCGR = biological target: T2, hGCGR (Homo sapiens, UniProt P47871); assay: Functional cAMP formation (HTRF) in HEK-293 clonal cells expressing hGCGR, 0.1% bovine casein, without or with 1.0% human serum albumin
T2 construct: expressed in transfected cells
T2 sequence (P47871 26-477): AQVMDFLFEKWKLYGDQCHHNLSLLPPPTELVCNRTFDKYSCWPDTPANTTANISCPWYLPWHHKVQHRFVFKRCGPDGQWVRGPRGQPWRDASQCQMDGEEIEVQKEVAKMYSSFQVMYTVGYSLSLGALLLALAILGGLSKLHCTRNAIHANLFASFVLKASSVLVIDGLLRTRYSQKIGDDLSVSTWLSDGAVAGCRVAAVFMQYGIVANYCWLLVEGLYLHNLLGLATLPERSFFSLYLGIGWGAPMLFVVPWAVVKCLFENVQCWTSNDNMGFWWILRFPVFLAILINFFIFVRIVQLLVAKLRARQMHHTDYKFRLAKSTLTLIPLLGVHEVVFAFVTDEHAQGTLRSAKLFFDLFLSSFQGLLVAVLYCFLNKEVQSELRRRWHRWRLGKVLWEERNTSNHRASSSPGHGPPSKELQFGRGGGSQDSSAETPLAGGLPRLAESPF
Procedure, shortened: as §1

[1] = HEK293, cAMP, 37° C., 0.1% bovine casein and 1.0% human serum albumin, percent of maximal response to GIP(1-42)NH2, read-out: hGIPR Emax, % ± SEM
[2] = HEK293, cAMP, 37° C., 0.1% bovine casein, percent of maximal response to GIP(1-42)NH2, arithmetic mean, read-out: hGIPR Emax, % ± SEM
[3] = cAMP, 37° C., 0.1% bovine casein (no human serum albumin), read-out: hGIPR EC50, nM (SEM, n)
[4] = cAMP, 37° C., 0.1% bovine casein (no human serum albumin), geometric mean, read-out: hGCGR EC50, nM (SEM, n)
[5] = cAMP, 37° C., 0.1% bovine casein and 1.0% human serum albumin, geometric mean (SEM, n), read-out: hGCGR EC50, nM (SEM, n)

CCCCCCCCCCCC(=O)N[C@@H](CCC(=O)NCCOCCOCC(=O)NCCCC[C@H](NC(=O)[C@H](CCCN)NC(=O)[C@H](CC(=O)O)NC(=O)[C@H](CC(C)C)NC(=O)[C@](C)(CC(C)C)NC(=O)[C@@H](NC(=O)C(C)(C)NC(=O)[C@H](CCCCNC(=O)COCCOCCNC(=O)CC[C@H](NC(=O)CCCCCCCCCCC)C(=O)O)NC(=O)[C@H](CC(=O)O)NC(=O)[C@H](CO)NC(=O)[C@@H](NC(=O)[C@](C)(Cc1ccccc1F)NC(=O)[C@@H](NC(=O)CNC(=O)[C@H](CCC(=O)O)NC(=O)C(C)(C)NC(=O)[C@@H](N)Cc1ccc(O)cc1)[C@@H](C)O)[C@@H](C)O)[C@@H](C)CC)C(=O)N[C@@H](C)C(=O)N[C@@H](CCC(N)=O)C(=O)NC(C)(C)C(=O)N[C@@H](CCC(=O)O)C(=O)N[C@@H](Cc1ccccc1)C(=O)N[C@H](C(=O)N[C@H](CCC(=O)O)C(=O)N[C@@](C)(Cc1ccc(O)cc1)C(=O)N[C@@H](CC(C)C)C(=O)N[C@H](C(=O)N[C@@H](CCC(=O)O)C(=O)NCC(=O)NCC(=O)N1CCC[C@H]1C(=O)N[C@@H](CO)C(=O)N[C@@H](CO)C(=O)NCC(=O)N[C@@H](C)C(=O)N1CCC[C@H]1C(=O)N1CCC[C@H]1C(=O)N1CCC[C@H]1C(=O)N[C@@H](CO)C(N)=O)[C@@H](C)CC)[C@@H](C)CC)C(=O)O [Example 425]
Emax (hGIPR; [1]): 89.9% | Emax (hGIPR; [2]): 97.6% | EC50 (hGIPR; [3]): 0.00943 nM | EC50 (hGLP-1R; 37° C.): 0.0965 nM | EC50 (hGCGR; [4]): > 9950 nM | EC50 (hGCGR; [5]): > 9950 nM

CC[C@H](C)[C@H](NC(=O)[C@H](CC(C)C)NC(=O)[C@](C)(Cc1ccc(O)cc1)NC(=O)[C@@H](CCC(=O)O)NC(=O)[C@@H](NC(=O)[C@](C)(Cc1ccccc1F)NC(=O)[C@H](CCC(=O)O)NC(=O)C(C)(C)NC(=O)[C@H](CCC(N)=O)NC(=O)[C@H](C)NC(=O)[C@H](CCCCNC(=O)COCCOCCNC(=O)COCCOCCNC(=O)CC[C@H](NC(=O)CCCCCCCCCCCCC(=O)O)C(=O)O)NC(=O)[C@H](CCCN)NC(=O)[C@H](CC(=O)O)NC(=O)[C@H](CC(C)C)NC(=O)[C@](C)(CC(C)C)NC(=O)[C@@H](NC(=O)[C@H](CO)NC(=O)[C@H](Cc1ccncc1)NC(=O)[C@H](CC(=O)O)NC(=O)[C@H](CO)NC(=O)[C@@H](NC(=O)[C@](C)(Cc1ccccc1F)NC(=O)[C@@H](NC(=O)CNC(=O)[C@H](CCC(=O)O)NC(=O)C(C)(C)NC(=O)[C@@H](N)Cc1ccc(O)cc1)[C@@H](C)O)[C@@H](C)O)[C@@H](C)CC)[C@@H](C)CC)C(=O)N[C@@H](CCC(=O)O)C(=O)NCC(=O)NCC(=O)N[C@@H](CCCCNC(=O)COCCOCCNC(=O)COCCOCCNC(=O)CC[C@H](NC(=O)CCCCCCCCCCCCC(=O)O)C(=O)O)C(=O)N[C@@H](CO)C(=O)N[C@@H](CO)C(=O)NCC(=O)N[C@@H](C)C(=O)N1CCC[C@H]1C(=O)N1CCC[C@H]1C(=O)N1CCC[C@H]1C(=O)N[C@@H](CO)C(N)=O [Example 88]
EC50 (hGIPR; 0.1% bovine casein and 1.0% human serum albumin, 37° C., read-out: hGIPR EC50, nM (SEM, n)): 0.591 nM | Emax (hGIPR; HEK293, 0.1% bovine casein and 1.0% human serum albumin, 37° C., percent of maximal response to GIP(1-42)NH2, read-out: hGIPR Emax, % ± SEM): 80.3% | Emax (hGIPR; HEK293, percent of maximal response to GIP(1-42)NH2, 37° C., 0.1% bovine casein, arithmetic mean, read-out: hGIPR Emax, % ± SEM): 85.1% | Emax (hGLP-1R; HEK293, percent of maximal response to GLP-1(7-36)NH2, 37° C., 0.1% bovine casein, arithmetic mean, read-out: hGLP-1R Emax, % ± SEM): 97.1% | EC50 (hGCGR; 0.1% bovine casein and 1.0% human serum albumin, 37° C., geometric mean, read-out: hGCGR EC50, nM (SEM, n)): > 9950 nM | EC50 (hGCGR; cAMP, incubated at 37° C., 0.1% bovine casein (no human serum albumin), geometric mean, read-out: hGCGR EC50, nM (SEM, n)): > 9950 nM

CCCCCCCCCCCC(=O)N[C@@H](CCC(=O)NCCOCCOCC(=O)NCCOCCOCC(=O)NCCCC[C@H](NC(=O)[C@H](CCCN)NC(=O)[C@H](CC(=O)O)NC(=O)[C@H](CC(C)C)NC(=O)[C@](C)(CC(C)C)NC(=O)[C@@H](NC(=O)C(C)(C)NC(=O)[C@H](Cc1ccncc1)NC(=O)[C@H](CC(=O)O)NC(=O)[C@H](CO)NC(=O)[C@@H](NC(=O)[C@](C)(Cc1ccccc1F)NC(=O)[C@@H](NC(=O)CNC(=O)[C@H](CCC(=O)O)NC(=O)C(C)(C)NC(=O)[C@@H](N)Cc1ccc(O)cc1)[C@@H](C)O)[C@@H](C)O)[C@@H](C)CC)C(=O)N[C@@H](C)C(=O)N[C@@H](CCC(N)=O)C(=O)NC(C)(C)C(=O)N[C@@H](Cc1ccncc1)C(=O)N[C@@H](Cc1ccccc1)C(=O)N[C@H](C(=O)N[C@H](CCC(=O)O)C(=O)N[C@@](C)(Cc1ccc(O)cc1)C(=O)N[C@@H](CC(C)C)C(=O)N[C@H](C(=O)N[C@@H](CCCCNC(=O)COCCOCCNC(=O)COCCOCCNC(=O)CC[C@H](NC(=O)CCCCCCCCCCC)C(=O)O)C(=O)NCC(=O)NCC(=O)N1CCC[C@H]1C(=O)N[C@@H](CO)C(=O)N[C@@H](CO)C(=O)NCC(=O)N[C@@H](C)C(=O)N1CCC[C@H]1C(=O)N1CCC[C@H]1C(=O)N1CCC[C@H]1C(=O)N[C@@H](CO)C(N)=O)[C@@H](C)CC)[C@@H](C)CC)C(=O)O [Example 416]
Emax (hGIPR; [1]): 83% | Emax (hGIPR; [2]): 99% | EC50 (hGIPR; [3]): 0.0214 nM | Emax (hGLP-1R; HEK293, cAMP, 37° C., 0.1% bovine casein and 1.0% human serum albumin, percent of maximal response to GLP-1(7-36)NH2, read-out: hGLP-1R Emax, % ± SEM): 109% | EC50 (hGLP-1R; 37° C.): 0.332 nM | EC50 (hGCGR; [4]): > 9950 nM | EC50 (hGCGR; [5]): > 9950 nM

CC[C@H](C)[C@H](NC(=O)[C@H](CCCN)NC(=O)[C@H](CC(=O)O)NC(=O)[C@H](CC(C)C)NC(=O)[C@](C)(CC(C)C)NC(=O)[C@@H](NC(=O)[C@H](CO)NC(=O)[C@H](Cc1ccncc1)NC(=O)[C@H](CC(=O)O)NC(=O)[C@H](CO)NC(=O)[C@@H](NC(=O)[C@](C)(Cc1ccccc1F)NC(=O)[C@@H](NC(=O)CNC(=O)[C@H](CCC(=O)O)NC(=O)C(C)(C)NC(=O)[C@@H](N)Cc1ccc(O)cc1)[C@@H](C)O)[C@@H](C)O)[C@@H](C)CC)C(=O)N[C@@H](C)C(=O)N[C@@H](CCC(N)=O)C(=O)NC(C)(C)C(=O)N[C@@H](CCCCNC(=O)COCCOCCNC(=O)COCCOCCNC(=O)CC[C@H](NC(=O)CCCCCCCCCCOc1ccc(C(=O)O)cc1)C(=O)O)C(=O)N[C@@H](Cc1ccccc1)C(=O)N[C@H](C(=O)N[C@H](CCC(=O)O)C(=O)N[C@@](C)(Cc1ccc(O)cc1)C(=O)N[C@@H](CC(C)C)C(=O)N[C@H](C(=O)N[C@@H](CCC(=O)O)C(=O)NCC(=O)NCC(=O)N1CCC[C@H]1C(=O)N[C@@H](CO)C(=O)N[C@@H](CO)C(=O)NCC(=O)N[C@@H](C)C(=O)N1CCC[C@H]1C(=O)N1CCC[C@H]1C(=O)N1CCC[C@H]1C(=O)N[C@@H](CO)C(=O)N[C@@H](CCCCNC(=O)COCCOCCNC(=O)COCCOCCNC(=O)CC[C@H](NC(=O)CCCCCCCCCCOc1ccc(C(=O)O)cc1)C(=O)O)C(N)=O)[C@@H](C)CC)[C@@H](C)CC [Example 288]
Emax (hGIPR; HEK293, read-out: hGIPR Emax, % ± SEM, 0.1% bovine casein and 1.0% human serum albumin, 37° C., percent of maximal response to GIP(1-42)NH2): 85.2% | Emax (hGIPR; HEK293, read-out: hGIPR Emax, % ± SEM, cAMP, 37° C., 0.1% bovine casein, percent of maximal response to GIP(1-42)NH2, arithmetic mean): 110% | EC50 (hGIPR; hGIPR EC50, nM (SEM, n), cAMP, 37° C., 0.1% bovine casein (no human serum albumin)): 0.0219 nM | Emax (hGLP-1R; HEK293, read-out: hGLP-1R Emax, % ± SEM, 0.1% bovine casein and 1.0% human serum albumin, 37° C., percent of maximal response to GLP-1(7-36)NH2): 123% | EC50 (hGCGR; hGCGR EC50, nM (SEM, n), 0.1% bovine casein and 1.0% human serum albumin, 37° C., geometric mean): > 9950 nM | EC50 (hGCGR; hGCGR EC50, nM (SEM, n), cAMP, 37° C., 0.1% bovine casein (no human serum albumin), geometric mean): > 9950 nM
